Measured values as given in patent publication US8802597B2, “Herbicidal pyrimidines” (E I du Pont de Nemours and Company, priority 2003, dated 2014).
Where two headings read alike, the source gives them in different places.

What was measured:
Assay in all cases: Test C pre/postemergence
Assay type in all cases: in vivo
[1] = tested on: goosegrass (Eleusine indica); details: Eleusine indica; for pest or weed control at 62 g/ha: 62 g ai/ha; for pest or weed control at 125 g/ha: 125 g ai/ha; for pest or weed control at 250 g/ha: 250 g ai/ha; for pest or weed control at 500 g/ha: 500 g ai/ha
Summary of the method: (§1)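 Seeds sown and sprayed preemergence with test compound in non-phytotoxic solvent containing surfactant; postemergence sprays, same formulation, went onto plants 2 to 18 cm tall (1- to 4-leaf stage). Plants held in greenhouse 12 to 14 days, then visually rated against untreated controls on a 0–100 scale (0 no effect, 100 complete control).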

[2] = tested on: lambsquarters (Chenopodium album); details: Chenopodium album; for pest or weed control at 62 g/ha: 62 g ai/ha; for pest or weed control at 125 g/ha: 125 g ai/ha; for pest or weed control at 250 g/ha: 250 g ai/ha; for pest or weed control at 500 g/ha: 500 g ai/ha
Summary of the method: as §1

[3] = tested on: bermudagrass (Cynodon dactylon); details: Cynodon dactylon; for pest or weed control at 62 g/ha: 62 g ai/ha; for pest or weed control at 125 g/ha: 125 g ai/ha; for pest or weed control at 250 g/ha: 250 g ai/ha; for pest or weed control at 500 g/ha: 500 g ai/ha
Summary of the method: as §1

[4] = tested on: cocklebur (Xanthium strumarium); details: Xanthium strumarium; for pest or weed control at 62 g/ha: 62 g ai/ha; for pest or weed control at 125 g/ha: 125 g ai/ha; for pest or weed control at 250 g/ha: 250 g ai/ha; for pest or weed control at 500 g/ha: 500 g ai/ha
Summary of the method: as §1

[5] = tested on: crabgrass (Digitaria sanguinalis); details: Digitaria sanguinalis; for pest or weed control at 62 g/ha: 62 g ai/ha; for pest or weed control at 125 g/ha: 125 g ai/ha; for pest or weed control at 250 g/ha: 250 g ai/ha; for pest or weed control at 500 g/ha: 500 g ai/ha
Summary of the method: as §1

corn (Zea mays) = details: Zea mays; for Corn plant response rating (crop injury, 0 = no effect, 100 = complete kill) at 62 g/ha: 62 g ai/ha; for Corn plant response rating (crop injury, 0 = no effect, 100 = complete kill) at 125 g/ha: 125 g ai/ha; for Corn plant response rating (crop injury, 0 = no effect, 100 = complete kill) at 250 g/ha: 250 g ai/ha; for Corn plant response rating (crop injury, 0 = no effect, 100 = complete kill) at 500 g/ha: 500 g ai/ha
Summary of the method: as §1

[6] = tested on: velvetleaf (Abutilon theophrasti); details: Abutilon theophrasti; for pest or weed control at 62 g/ha: 62 g ai/ha; for pest or weed control at 125 g/ha: 125 g ai/ha; for pest or weed control at 250 g/ha: 250 g ai/ha; for pest or weed control at 500 g/ha: 500 g ai/ha
Summary of the method: as §1

[7] = post-emergence, Postemergence, scale 0 to 100 (0 no effect, 100 complete control), read-out: Goosegrass plant response rating
[8] = post-emergence, Postemergence, scale 0 to 100, read-out: Plant response rating, Goosegrass
[9] = pre-emergence, Preemergence, scale 0 to 100, read-out: Plant response rating, Goosegrass
[10] = post-emergence, Postemergence, scale 0 to 100 (0 no effect, 100 complete control), read-out: Lambsquarters plant response rating
[11] = post-emergence, Postemergence, scale 0 to 100, read-out: Plant response rating, Lambsquarters
[12] = pre-emergence, Preemergence, scale 0 to 100, read-out: Plant response rating, Lambsquarters
[13] = post-emergence, Postemergence, scale 0 to 100 (0 no effect, 100 complete control), read-out: Bermudagrass plant response rating
[14] = post-emergence, Postemergence, scale 0 to 100, read-out: Plant response rating, Bermudagrass
[15] = pre-emergence, Preemergence, scale 0 to 100, read-out: Plant response rating, Bermudagrass
[16] = post-emergence, Postemergence, scale 0 to 100 (0 no effect, 100 complete control), read-out: Cocklebur plant response rating
[17] = post-emergence, Postemergence, scale 0 to 100, read-out: Plant response rating, Cocklebur
[18] = pre-emergence, Preemergence, scale 0 to 100, read-out: Plant response rating, Cocklebur
[19] = post-emergence, Postemergence, scale 0 to 100 (0 no effect, 100 complete control), read-out: Crabgrass plant response rating
[20] = post-emergence, Postemergence, scale 0 to 100, read-out: Plant response rating, Crabgrass
[21] = pre-emergence, Preemergence, scale 0 to 100, read-out: Plant response rating, Crabgrass
[22] = post-emergence, Postemergence, scale 0 to 100 (0 no effect, 100 complete control), read-out: Corn plant response rating
[23] = post-emergence, Postemergence, scale 0 to 100
[24] = pre-emergence, Preemergence, scale 0 to 100
[25] = post-emergence, Postemergence, scale 0 to 100 (0 no effect, 100 complete control), read-out: Velvetleaf plant response rating
[26] = post-emergence, Postemergence, scale 0 to 100, read-out: Plant response rating, Velvetleaf
[27] = pre-emergence, Preemergence, scale 0 to 100, read-out: Plant response rating, Velvetleaf

Nc1nc(C2CC2)nc(C(=O)O)c1Br [Compound 8]
75%: pest or weed control at 62 g/ha [2, 10] | pest or weed control at 500 g/ha [3, 14] | pest or weed control at 500 g/ha [5, 20] | Corn plant response rating (crop injury, 0 = no effect, 100 = complete kill) at 500 g/ha (corn (Zea mays); [24]) | pest or weed control at 125 g/ha [6, 27]
60%: pest or weed control at 500 g/ha [1, 8] | pest or weed control at 125 g/ha [3, 14] | pest or weed control at 62 g/ha [5, 19] | pest or weed control at 62 g/ha [6, 25]
85%: pest or weed control at 125 g/ha [4, 18] | pest or weed control at 250 g/ha [6, 26]
100%: pest or weed control at 125 g/ha [2, 10] | pest or weed control at 250 g/ha [2, 11] | pest or weed control at 500 g/ha [2, 11] | pest or weed control at 500 g/ha [2, 12] | pest or weed control at 62 g/ha ([3]; pre-emergence, Preemergence, scale 0 to 100, 0 no effect, 100 complete control, read-out: Plant response rating, Bermudagrass) | pest or weed control at 125 g/ha [3, 15] | pest or weed control at 250 g/ha [3, 15] | pest or weed control at 500 g/ha [3, 15] | pest or weed control at 125 g/ha [4, 16] | pest or weed control at 250 g/ha [4, 17] | pest or weed control at 500 g/ha [4, 17] | pest or weed control at 250 g/ha [4, 18] | pest or weed control at 500 g/ha [4, 18] | pest or weed control at 250 g/ha [6, 27] | pest or weed control at 500 g/ha [6, 27]
0%: pest or weed control at 62 g/ha [1, 7] | pest or weed control at 125 g/ha [1, 7] | pest or weed control at 62 g/ha ([1]; pre-emergence, Preemergence, scale 0 to 100, 0 no effect, 100 complete control, read-out: Plant response rating, Goosegrass) | pest or weed control at 125 g/ha [1, 9] | pest or weed control at 62 g/ha ([2]; pre-emergence, Preemergence, scale 0 to 100, 0 no effect, 100 complete control, read-out: Plant response rating, Lambsquarters) | pest or weed control at 62 g/ha ([5]; pre-emergence, Preemergence, scale 0 to 100, 0 no effect, 100 complete control, read-out: Plant response rating, Crabgrass) | pest or weed control at 125 g/ha [5, 21] | pest or weed control at 250 g/ha [5, 21] | pest or weed control at 500 g/ha [5, 21] | Corn plant response rating (crop injury, 0 = no effect, 100 = complete kill) at 62 g/ha (corn (Zea mays); [22]) | Corn plant response rating (crop injury, 0 = no effect, 100 = complete kill) at 62 g/ha (corn (Zea mays); pre-emergence, Preemergence, scale 0 to 100, 0 no effect, 100 complete control, read-out: Plant response rating, Corn) | Corn plant response rating (crop injury, 0 = no effect, 100 = complete kill) at 125 g/ha (corn (Zea mays); pre-emergence, Preemergence, scale 0 to 100, read-out: Plant response rating, Corn)
45%: pest or weed control at 250 g/ha [1, 8] | pest or weed control at 500 g/ha [1, 9]
95%: pest or weed control at 500 g/ha [6, 26]
35%: pest or weed control at 250 g/ha [1, 9]
50%: pest or weed control at 62 g/ha [3, 13]
80%: pest or weed control at 62 g/ha [4, 16]
70%: pest or weed control at 250 g/ha [5, 20] | Corn plant response rating (crop injury, 0 = no effect, 100 = complete kill) at 250 g/ha (corn (Zea mays); [23]) | pest or weed control at 125 g/ha [6, 25]
10%: Corn plant response rating (crop injury, 0 = no effect, 100 = complete kill) at 250 g/ha (corn (Zea mays); [24])
65%: pest or weed control at 250 g/ha [3, 14] | pest or weed control at 125 g/ha [5, 19] | pest or weed control at 62 g/ha ([6]; pre-emergence, Preemergence, scale 0 to 100, 0 no effect, 100 complete control, read-out: Plant response rating, Velvetleaf)
90%: pest or weed control at 250 g/ha [2, 12] | Corn plant response rating (crop injury, 0 = no effect, 100 = complete kill) at 500 g/ha (corn (Zea mays); [23])
20%: pest or weed control at 125 g/ha [2, 12] | Corn plant response rating (crop injury, 0 = no effect, 100 = complete kill) at 125 g/ha (corn (Zea mays); [22])

CCOC(=O)c1nc(C2CC2)nc(NN)c1Br [Compound 42]
0%: pest or weed control at 31 g/ha ([1]; post-emergence, Postemergence, 31 g ai/ha, read-out: Plant response rating (scale of 0 to 100), Goosegrass) | pest or weed control at 62 g/ha [1, 7] | pest or weed control at 125 g/ha [1, 7] | pest or weed control at 250 g/ha [1, 8] | pest or weed control at 31 g/ha ([3]; post-emergence, Postemergence, 31 g ai/ha, read-out: Plant response rating (scale of 0 to 100), Bermudagrass) | pest or weed control at 62 g/ha [3, 13] | pest or weed control at 125 g/ha [3, 13] | pest or weed control at 31 g/ha ([4]; post-emergence, Postemergence, 31 g ai/ha, read-out: Plant response rating (scale of 0 to 100), Cocklebur) | pest or weed control at 62 g/ha [4, 16] | pest or weed control at 31 g/ha ([5]; post-emergence, Postemergence, 31 g ai/ha, read-out: Plant response rating (scale of 0 to 100), Crabgrass) | pest or weed control at 62 g/ha [5, 19] | pest or weed control at 125 g/ha [5, 19] | pest or weed control at 250 g/ha [5, 20] | Corn plant response rating (crop injury, 0 = no effect, 100 = complete kill) at 31 g/ha (corn (Zea mays); post-emergence, Postemergence, 31 g ai/ha, read-out: Plant response rating (scale of 0 to 100), Corn) | Corn plant response rating (crop injury, 0 = no effect, 100 = complete kill) at 62 g/ha (corn (Zea mays); [22]) | Corn plant response rating (crop injury, 0 = no effect, 100 = complete kill) at 125 g/ha (corn (Zea mays); [22]) | Corn plant response rating (crop injury, 0 = no effect, 100 = complete kill) at 250 g/ha (corn (Zea mays); [23]) | pest or weed control at 31 g/ha ([6]; post-emergence, Postemergence, 31 g ai/ha, read-out: Plant response rating (scale of 0 to 100), Velvetleaf) | pest or weed control at 62 g/ha [6, 25] | pest or weed control at 125 g/ha [6, 25]
20%: pest or weed control at 62 g/ha [2, 10] | pest or weed control at 125 g/ha [2, 10] | pest or weed control at 250 g/ha [4, 17] | pest or weed control at 250 g/ha [6, 26]
10%: pest or weed control at 31 g/ha ([2]; post-emergence, Postemergence, 31 g ai/ha, read-out: Plant response rating (scale of 0 to 100), Lambsquarters)
25%: pest or weed control at 250 g/ha [2, 11]
5%: pest or weed control at 250 g/ha [3, 14] | pest or weed control at 125 g/ha [4, 16]
